Assays:
[1] = tested on: C57BL/6 mice; test: Behavior and survival of mice after ICV tBuOOH; format: in vivo, mouse (male C57BL/6)
Method: (§1) In general male C57BL/6 mice (2, 8 or 24 months old) were anesthetized with ketamine and xylazine (200 and 2 mg/kg, ip). They were injected ICV with tBuOOH in doses of approximately 22 or 110 mg/kg. This amounts to 1 or 5 μl of a 70% solution of tBuOOH injected slowly into a lateral cerebral ventricle. A mouse brain weighs about 400 mg. […] Animals recovered from anesthesia about 30 minutes or so after tBuOOH administration. […] Low dose mice survived for 48 hours or more.

[2] = tested on: DNA; test: EPR detection of radicals on mixing DNA and tBuOOH in the presence of DMPO
From the text: Therefore, DNA fragmentation is produced following HO. and other radicals induced DNA damage. Necrotic degeneration probably occurs within the first few hours after tBuOOH administration.

[3] = tested on: DNA in brain sections of C57BL/6 mice; test: DNA fragmentation in brain regions upon treatment with tBuOOH (Tables 1 and 2); format: in vivo, mouse (C57BL/6); settings: for Fraction of damaged DNA, Cerebellum / Fraction of damaged DNA, Cortex / Fraction of damaged DNA, Hippo / Fraction of damaged DNA, Midbrain / Fraction of damaged DNA, Striatum / Fraction of damaged DNA, Thalamus: mean ± SD
Method: as §1
Young adult (2 month old) and mature (8 month old) C57BL/6 mice were divided into 7 groups with 8 animals in the control group and 4 animals in each of the other groups for both the age groups. A dose of 109.7 mg/kg of tBuOOH was administered ICV, to three groups of mice of both age groups. See Tables 1 and 2. tBuOOH was injected ICV following the technique described in Popick^2. The experiments ended 2 minutes, 5 minutes and 20 minutes after injection of tBuOOH. In the second set of experiments, 21.9 mg/kg of the toxin was administered ICV in the other three groups of mice with experimental durations of 12 hours, 24 hours and 48 hours respectively. The controls were treated with saline rather than tBuOOH.
The brains were removed after the allotted time period and sectioned immediately into the following sections: cortex, striatum, hippocampus, thalamus, midbrain and cerebellum.

[4] = tested on: NADPH; test: Pyridine dinucleotide quantitation, NADPH in brain regions; format: in vivo, mouse (male C57BL/6); settings: 110 mg/kg ICV, 8 month old mice
From the text: NADPH and NADH are stable in base. Fortunately, the cyanide reaction proceeds optimally in base.

[5] = tested on: catalase; settings: cited from earlier work
[6] = 2 month old mice, 21.9 mg/kg ICV, 12 hours
[7] = 2 month old mice, 21.9 mg/kg ICV, 24 hours
[8] = 2 month old mice, 21.9 mg/kg ICV, 48 hours
[9] = 2 month old mice, 109.7 mg/kg ICV, 2 min
[10] = 2 month old mice, 109.7 mg/kg ICV, 2 min, * p<0.05 vs control
[11] = 2 month old mice, 109.7 mg/kg ICV, 5 min
[12] = 2 month old mice, 109.7 mg/kg ICV, 20 min
[13] = 2 month old mice, 109.7 mg/kg ICV, 20 min, * p<0.05 vs control
[14] = 8 month old mice, 21.9 mg/kg ICV, 12 hours
[15] = 8 month old mice, 21.9 mg/kg ICV, 24 hours
[16] = 8 month old mice, 21.9 mg/kg ICV, 48 hours
[17] = 8 month old mice, 109.7 mg/kg ICV, 2 min
[18] = 8 month old mice, 109.7 mg/kg ICV, 5 min
[19] = 8 month old mice, 109.7 mg/kg ICV, 20 min
[20] = 8 month old mice, 109.7 mg/kg ICV, 20 min, * p<0.05 vs control

CC(C)(C)OO [tBuOOH, t-butylhydroperoxide]
behavior of low dose animals ([1]; about 22 mg/kg ICV): move about freely and resemble mice treated ICV with 0.9% saline | appearance of high dose mice and death ([1]; about 110 mg/kg ICV): frequently appeared inactive until death | time of death after treatment ([1]; high dose (about 110 mg/kg ICV)): about 2 hours | survival ([1]; low dose (about 22 mg/kg ICV)): ≥ 48 h | radicals produced by mixing DNA and tBuOOH [2]: produces HO. and other radicals | effect on cortex DNA ([3]; 2 and 8 month old mice, high or low dose): not affected | DNA damage in all other brain sections ([3]; 2 and 8 month old mice, high or low dose or both): some vulnerability | Fraction of damaged DNA, Cerebellum [3, 6]: 0.65 ± 0.19 per gram of tissue | Fraction of damaged DNA, Cortex [3, 6]: 0.53 ± 0.16 per gram of tissue | Fraction of damaged DNA, Hippo [3, 6]: 0.40 ± 0.16 per gram of tissue | Fraction of damaged DNA, Midbrain [3, 6]: 0.83 ± 0.58 per gram of tissue | Fraction of damaged DNA, Striatum [3, 6]: 1.13 ± 0.49 per gram of tissue | Fraction of damaged DNA, Thalamus [3, 6]: 1.29 ± 0.39 per gram of tissue | Fraction of damaged DNA, Cerebellum [3, 7]: 0.93 ± 0.36 per gram of tissue | Fraction of damaged DNA, Cortex [3, 7]: 0.47 ± 0.13 per gram of tissue | Fraction of damaged DNA, Hippo [3, 7]: 0.31 ± 0.04 per gram of tissue | Fraction of damaged DNA, Midbrain [3, 7]: 1.23 ± 0.12 per gram of tissue | Fraction of damaged DNA, Striatum [3, 7]: 1.16 ± 0.31 per gram of tissue | Fraction of damaged DNA, Thalamus [3, 7]: 1.44 ± 0.76 per gram of tissue | Fraction of damaged DNA, Cortex [3, 8]: 0.73 ± 0.03 per gram of tissue | Fraction of damaged DNA, Hippo [3, 8]: 0.50 ± 0.09 per gram of tissue | Fraction of damaged DNA, Midbrain [3, 8]: 1.24 ± 0.13 per gram of tissue | Fraction of damaged DNA, Striatum [3, 8]: 1.66 ± 0.33 per gram of tissue | Fraction of damaged DNA, Thalamus [3, 8]: 1.25 ± 0.14 per gram of tissue | Fraction of damaged DNA, Cerebellum ([3]; 2 month old mice, 21.9 mg/kg ICV, 48 hours, * p<0.05 vs control, 1 p<0.05 vs other age group): 1.29 ± 0.12 per gram of tissue | significant damage in the hippocampus ([3]; 2 month old mice, 109.7 mg/kg): significant damage was seen 2 minutes and 20 minutes after injection | Fraction of damaged DNA, Cerebellum [3, 9]: 1.17 ± 0.25 per gram of tissue | Fraction of damaged DNA, Cortex [3, 9]: 0.84 ± 0.33 per gram of tissue | Fraction of damaged DNA, Striatum [3, 9]: 2.00 ± 0.45 per gram of tissue | Fraction of damaged DNA, Hippo [3, 10]: 0.66 ± 0.09 per gram of tissue | Fraction of damaged DNA, Midbrain [3, 10]: 2.48 ± 1.02 per gram of tissue | Fraction of damaged DNA, Thalamus [3, 10]: 2.66 ± 0.33 per gram of tissue | Fraction of damaged DNA, Cerebellum [3, 11]: 0.88 ± 0.20 per gram of tissue | Fraction of damaged DNA, Cortex [3, 11]: 0.82 ± 0.23 per gram of tissue | Fraction of damaged DNA, Hippo [3, 11]: 0.41 ± 0.05 per gram of tissue | Fraction of damaged DNA, Midbrain [3, 11]: 1.71 ± 0.77 per gram of tissue | Fraction of damaged DNA, Striatum [3, 11]: 1.66 ± 0.52 per gram of tissue | Fraction of damaged DNA, Thalamus ([3]; 2 month old mice, 109.7 mg/kg ICV, 5 min, * p<0.05 vs control): 2.85 ± 0.83 per gram of tissue | Fraction of damaged DNA, Cortex [3, 12]: 0.76 ± 0.26 per gram of tissue | Fraction of damaged DNA, Thalamus [3, 12]: 2.46 ± 0.65 per gram of tissue | Fraction of damaged DNA, Cerebellum [3, 13]: 1.39 ± 0.51 per gram of tissue | Fraction of damaged DNA, Hippo [3, 13]: 0.66 ± 0.14 per gram of tissue | Fraction of damaged DNA, Midbrain [3, 13]: 3.09 ± 0.28 per gram of tissue | Fraction of damaged DNA, Striatum [3, 13]: 2.56 ± 0.49 per gram of tissue | hippocampus damage at 5 minutes compared with other age group ([3]; 2 month old vs 8 month old mice, 109.7 mg/kg): significantly lower | significant damage in the cerebellum, early ([3]; 8 month old mice after 5 and 20 minutes, 2 month old mice after 20 minutes): Significant damage was observed after 5 minutes and 20 minutes, in the case of the 8 month old cerebellum and after 20 minutes in the 2 month old cerebellum | Fraction of damaged DNA, Cerebellum [3, 14]: 0.69 ± 0.15 per gram of tissue | Fraction of damaged DNA, Cortex [3, 14]: 0.61 ± 0.10 per gram of tissue | Fraction of damaged DNA, Hippo [3, 14]: 0.46 ± 0.17 per gram of tissue | Fraction of damaged DNA, Midbrain [3, 14]: 0.76 ± 0.24 per gram of tissue | Fraction of damaged DNA, Striatum [3, 14]: 1.17 ± 0.33 per gram of tissue | Fraction of damaged DNA, Thalamus [3, 14]: 1.08 ± 0.30 per gram of tissue | Fraction of damaged DNA, Cerebellum [3, 15]: 0.67 ± 0.16 per gram of tissue | Fraction of damaged DNA, Cortex [3, 15]: 0.65 ± 0.13 per gram of tissue | Fraction of damaged DNA, Hippo [3, 15]: 0.46 ± 0.05 per gram of tissue | Fraction of damaged DNA, Midbrain [3, 15]: 1.05 ± 0.35 per gram of tissue | Fraction of damaged DNA, Striatum [3, 15]: 0.99 ± 0.06 per gram of tissue | Fraction of damaged DNA, Thalamus [3, 15]: 0.75 ± 0.27 per gram of tissue | Fraction of damaged DNA, Cortex [3, 16]: 0.69 ± 0.10 per gram of tissue | Fraction of damaged DNA, Hippo [3, 16]: 0.55 ± 0.06 per gram of tissue | Fraction of damaged DNA, Midbrain [3, 16]: 1.05 ± 0.13 per gram of tissue | Fraction of damaged DNA, Striatum [3, 16]: 1.15 ± 0.12 per gram of tissue | Fraction of damaged DNA, Thalamus [3, 16]: 1.65 ± 0.13 per gram of tissue | Fraction of damaged DNA, Cerebellum ([3]; 8 month old mice, 21.9 mg/kg ICV, 48 hours, * p<0.05 vs control): 1.01 ± 0.11 per gram of tissue | significant damage in the hippocampus ([3]; 8 month old mice, 109.7 mg/kg): significant damage was seen within 5 minutes | Fraction of damaged DNA, Cerebellum [3, 17]: 0.80 ± 0.09 per gram of tissue | Fraction of damaged DNA, Cortex [3, 17]: 0.87 ± 0.17 per gram of tissue | Fraction of damaged DNA, Hippo [3, 17]: 0.69 ± 0.14 per gram of tissue | Fraction of damaged DNA, Midbrain [3, 17]: 2.24 ± 0.66 per gram of tissue | Fraction of damaged DNA, Striatum [3, 17]: 1.56 ± 0.27 per gram of tissue | Fraction of damaged DNA, Thalamus ([3]; 8 month old mice, 109.7 mg/kg ICV, 2 min, * p<0.05 vs control): 2.29 ± 0.78 per gram of tissue | Fraction of damaged DNA, Cortex [3, 18]: 0.67 ± 0.16 per gram of tissue | Fraction of damaged DNA, Midbrain [3, 18]: 1.93 ± 0.26 per gram of tissue | Fraction of damaged DNA, Striatum [3, 18]: 1.63 ± 0.47 per gram of tissue | Fraction of damaged DNA, Thalamus [3, 18]: 1.86 ± 0.58 per gram of tissue | Fraction of damaged DNA, Cerebellum ([3]; 8 month old mice, 109.7 mg/kg ICV, 5 min, * p<0.05 vs control): 1.15 ± 0.12 per gram of tissue | Fraction of damaged DNA, Hippo ([3]; 8 month old mice, 109.7 mg/kg ICV, 5 min, * p<0.05 vs control, 1 p<0.05 vs other age group): 0.81 ± 0.20 per gram of tissue | Fraction of damaged DNA, Cortex [3, 19]: 0.70 ± 0.19 per gram of tissue | Fraction of damaged DNA, Hippo [3, 19]: 0.67 ± 0.15 per gram of tissue | Fraction of damaged DNA, Cerebellum [3, 20]: 1.46 ± 0.36 per gram of tissue | Fraction of damaged DNA, Midbrain [3, 20]: 2.98 ± 0.85 per gram of tissue | Fraction of damaged DNA, Striatum [3, 20]: 2.38 ± 0.41 per gram of tissue | Fraction of damaged DNA, Thalamus [3, 20]: 2.77 ± 0.30 per gram of tissue | significant DNA damage in the thalamus ([3]; both age groups): significant DNA damage was found after 2 minutes | significant damage in the midbrain ([3]; both age groups): significant damage was found after 20 minutes | significant damage in the cerebellum at 48 hours ([3]; both age groups, 2 month old significantly greater than 8 month old): significant damage was observed in the cerebellum at the end of 48 hours | significant DNA damage in the striatum ([3]; both age groups, high dose): significant DNA damage was found only after 20 minutes | time for NADPH to return to control values [4]: ≤ 5 min | NADPH oxidation ([4]; every brain region): oxidized rapidly | substrate for catalase [5]: not a substrate for catalase

From US5736529A, “Use of NAD-related compounds in the treatment of neural trauma to inhibit neurodegeneration” (priority 1996, dated 1998)
